Test results from paper PMC5855875, “Teixobactin analogues reveal enduracididine to be non-essential for highly potent antibacterial activity and lipid II binding” (Chemical Science, 2017).
In brackets after ≈: the same amount, converted by molar mass. Where two headings read alike, the source gives them in different places. One block for each molecule: values may come before it. Bridge positions count the residues as written; N and C are the ends. Square brackets hold non-standard residues; d marks the D form. Peptide text beside a SMILES is read from it. d(aIle) = CC[C@H](C)[C@@H](N)C(=O)O; dNMeF = CN[C@H](Cc1ccccc1)C(=O)O

Key:
MRSA ATCC 33591 = assay: microbe, parasite or virus in culture
Experimental: (§1) were grown in Mueller Hinton broth (Oxoid) in triplicate. All incubations were at 37°C. Dilutions were carried out in triplicate. 100 µl of autoclaved Mueller Hinton broth was added to wells 2-12 in a 96-well plate. 200 µl of the peptide was added to well one at a concentration of 256 µg/mL. 100µl of peptide in well one was taken up and pipetted into well two. The mixture was then mixed via pipetting before 100µl was taken up and pipetted into well three. This process was repeated up to well 11. Once […]
(§2) peptide present. Thus, the concentrations (in µg/mL) were: 256, 128, 64, 32, 16, 8, 4, 2, 1, 0.5, 0.25 and no peptide present. Each well was then inoculated with 100µl of bacteria that had been diluted to an […]
(§3) This was repeated three times. The 96-well plates were then incubated at 37°C for 24 hours. The MIC was determined to be the lowest concentration at which there was no growth visible. […]
(§4) was repeated at an altered initial concentration of 64 µg/ml. Therefore, the new concentrations for MIC […]
(§5) VIII. MIC testing (extended panel)
(§6) Bacterial cultures were grown overnight i n Mueller-Hinton Agar (MHA) plates and adjusted to a final concentration of 10 5 – 106 CFU/ml. 100 µl of inoculum in Meuller -Hinton broth (MHB) was mixed with equal volume of peptides (dissolved in MHB) at 2x their concentration in a 96 well plate. In parallel experiments, MIC values were determined in the media containing polysorbate 80 (0 .002%, v/v) to […]

MRSA 1: MRSA ATCC 700699 = assay: microbe, parasite or virus in culture
Experimental: as §5, §6
(§7) prevent non-specific adsorption of the peptides to plastic surfaces. The final peptides concentrations […]
(§8) Positive and negative controls contained 200 µl of inoculum without any peptide dissolved in broth, respectively. The 96 well plates were then incubated at 37 °C for 24 h.
(§9) All the experiments were performed in two independent duplicates and the MIC was determined as the […]
(§10) Minimum bactericidal concentration
(§11) The lowest concentration in which no visible colonies could be detected was taken as the MBC.
(§12) 80. Strain information: MRSA 1: MRSA ATCC 700699, MRSA 2: MRSA DR 42412 (sputum), MRSA
(§13) 3: MRSA DM21455 (eye). […] Staphylococcus aureus ATCC

[1] = test system: MRSA 3: MRSA DM21455 (eye); assay: microbe, parasite or virus in culture
Experimental: as §5, §6, §7, §8, §9, §10, §11, §12, §13

[2] = test system: Staphylococcus aureus ATCC 29213; assay: microbe, parasite or virus in culture
Experimental: as §5, §6, §7, §8, §9, §10, §11, §12, §13

[3] = test system: MRSA 2: MRSA DR 42412 (sputum); assay: microbe, parasite or virus in culture
Experimental: as §5, §6, §7
(§14) Positive and negative controls contained 200 µl of inoculum without any peptide dissolved in broth, respectively. The 96 well plates were then incubated at 37 °C for 24 h. […]
as §12, §13

VRE 1: VRE ATCC 700802 = assay: organism not typed
Experimental: as §5, §6, §7, §14, §12, §13

VRE 2: VRE ATCC 29212 = assay: organism not typed
Experimental: as §5, §6, §7, §14, §12, §13

M. smegmatis ATCC 607 = assay: microbe, parasite or virus in culture
Experimental: as §1, §2, §3, §4
Middlebrook 7H9 broth (SIGMA) supplemented to 5% Middlebrook ADC (SIGMA) growth

MRSA DM21455 = assay: Time-kill kinetics; assay type: cell-based, Methicillin-resistant Staphylococcus aureus
Experimental: IX. Time-dependent killing of bacteria by teixobactin analogues 12 and 13 Time-kill kinetics against MRSA DM21455 strains (clinical isolates from patients) was carried out in MHB. Cultures were grown overnight in MHA plates and adjusted to a final inoculum of 10^5 – 10^6 CFU/ml in MHB (containing 0.002% v/v, polysorbate 80) with teixobactin analogues 12 and 13 maintained at a final concentration of 0.5 µg/ml. For vancomycin, the concentration was varied from 0.5 – 16 µg/ml without polysorbate 80. The tubes were then incubated at 37 °C. 100 µl of cell suspension was withdrawn at various time points (0, 2, 4, 8, 24 h), serially diluted (101-105 fold dilutions) and plated onto a MHA plates and incubated for 24 h at 37 °C.
Colonies were then enumerated […]. Colony counting too numerous to count (>300 colonies) was taken as 1010 CFU. Average values from two independent experiments are reported. […]
(also on this page, place not known: polyso rbate vancomycin , concentr ation 80 . wer e µ l (10 1-105 10 10 previously n - TL C three S76: (Ala10-teixobactin) literature.7 Lipid II Lipid II: Compound 8 = 1:1 Lipid II: Compound 16 = 1:1 Lipid II: Compound 8 = 1:2 Lipid II: Compound 16 = 1:2 Lipid II: Compound 8 = 1:4)

[4] = Staphylococcus aureus, MRSA, 24 h
[5] = Staphylococcus aureus, MRSA, 24 h, read-out: MIC (with polysorbate 80)
[6] = Staphylococcus aureus, MRSA, 24 h, read-out: MIC (without polysorbate 80)
[7] = Enterococcus, 24 h, read-out: MIC (with polysorbate 80)
[8] = Enterococcus, 24 h, read-out: MIC (without polysorbate 80)

SMILES: CN[C@H](CC(C)C)C(=O)N[C@H]1C(=O)N[C@@H](CC(N)=O)C(=O)N[C@H]2C(=O)N[C@H]3C(=O)N[C@H](C(=O)N[C@H](C(=O)O)c4cc(O)cc(O)c4-c4cc3ccc4O)[C@H](O)c3ccc(c(Cl)c3)Oc3cc2cc(c3O[C@@H]2O[C@H](CO)[C@@H](O)[C@H](O)[C@H]2O[C@H]2C[C@](C)(N)[C@H](O)[C@H](C)O2)Oc2ccc(cc2Cl)[C@H]1O [Compound 18, Vancomycin, reference compound]
MIC (MRSA ATCC 33591; Staphylococcus aureus, 24 h): 2 µg/mL (≈ 1.38 µM)
MIC (MRSA 1: MRSA ATCC 700699; Staphylococcus aureus, 24 h): 2 µg/mL (≈ 1.38 µM)
MIC (MRSA 1: MRSA ATCC 700699; Staphylococcus aureus, ATCC700699|MRSA, 24 h, read-out: MIC (with polysorbate 80)): 1 µg/mL (≈ 0.69 µM)
MIC (MRSA 1: MRSA ATCC 700699; Staphylococcus aureus, ATCC700699|MRSA, 24 h, read-out: MIC (without polysorbate 80)): 2 µg/mL (≈ 1.38 µM)
MIC [1, 4]: 2 µg/mL (≈ 1.38 µM)
MIC [1, 5]: 1 µg/mL (≈ 0.69 µM)
MIC [1, 6]: 2 µg/mL (≈ 1.38 µM)
MIC ([2]; Staphylococcus aureus, ATCC29213, 24 h, read-out: MIC (with polysorbate 80)): 2 µg/mL (≈ 1.38 µM)
MIC ([2]; Staphylococcus aureus, ATCC29213, 24 h, read-out: MIC (without polysorbate 80)): 4 µg/mL (≈ 2.76 µM)
MIC ([2]; Staphylococcus aureus, ATCC29213 / MSSA, 24 h): 4 µg/mL (≈ 2.76 µM)
MIC [3, 4]: 2 µg/mL (≈ 1.38 µM)
MIC [3, 5]: 1 µg/mL (≈ 0.69 µM)
MIC [3, 6]: 2 µg/mL (≈ 1.38 µM)
MIC (VRE 1: VRE ATCC 700802): > 4 µg/mL
MIC (VRE 1: VRE ATCC 700802; [7]): > 4 µg/mL
MIC (VRE 1: VRE ATCC 700802; [8]): > 4 µg/mL
MIC (VRE 2: VRE ATCC 29212): > 4 µg/mL
MIC (VRE 2: VRE ATCC 29212; [7]): > 4 µg/mL
MIC (VRE 2: VRE ATCC 29212; [8]): > 4 µg/mL
MIC (M. smegmatis ATCC 607; Mycolicibacterium smegmatis, ATCC607, 72 h): > 64 µg/mL
time-kill outcome (MRSA DM21455; 0.5 μg mL^–1, without polysorbate 80, 37 °C): substantial growth was observed
concentration needed for similar effects as teixobactin analogues 12 & 13 in time-kill (MRSA DM21455; MRSA 21455, without polysorbate 80): 8 μg mL^–1

MIC (MRSA ATCC 33591; ATCC 33591, 24 h): 0.25 μg mL^–1
MIC (MRSA 1: MRSA ATCC 700699; ATCC 700699, 24 h): 0.25 μg mL^–1
MIC (without polysorbate 80) (MRSA 1: MRSA ATCC 700699; ATCC 700699, 24 h): 2 µg/mL (≈ 1.66 µM)
MIC (with polysorbate 80) (MRSA 1: MRSA ATCC 700699; MRSA 1, MHB containing polysorbate 80 (0.002%, v/v), 37 °C, 24 h, two independent duplicates): 0.25 µg/mL (≈ 0.208 µM)
MIC ([1]; 3: DM21455 (eye, 24 h)): ≤0.0625 μg mL^–1
MIC (without polysorbate 80) ([1]; 3: DM21455 (eye, 24 h)): 2 µg/mL (≈ 1.66 µM)
MIC (with polysorbate 80) ([1]; MRSA 3, MHB containing polysorbate 80 (0.002%, v/v), 37 °C, 24 h): ≤ 0.0625 µg/mL
MIC ([2]; ATCC 29213, 24 h): ≤0.0625 μg mL^–1
MIC (without polysorbate 80) ([2]; ATCC 29213, 24 h): 1 µg/mL (≈ 0.832 µM)
MIC (with polysorbate 80) ([2]; S. aureus ATCC 29213, MHB containing polysorbate 80 (0.002%, v/v), 37 °C, 24 h): ≤ 0.0625 µg/mL
MIC ([3]; 2: DR 42412 (sputum, 24 h)): ≤0.0625 μg mL^–1
MIC (without polysorbate 80) ([3]; 2: DR 42412 (sputum, 24 h)): 2 µg/mL (≈ 1.66 µM)
MIC (with polysorbate 80) ([3]; MRSA 2, MHB containing polysorbate 80 (0.002%, v/v), 37 °C, 24 h): ≤ 0.0625 µg/mL
MIC (without polysorbate 80) (VRE 1: VRE ATCC 700802; ATCC 700802, 24 h): 1 µg/mL (≈ 0.832 µM)
MIC (with polysorbate 80) (VRE 1: VRE ATCC 700802; VRE 1, MHB containing polysorbate 80 (0.002%, v/v), 37 °C, 24 h): ≤ 0.0625 µg/mL
MIC (without polysorbate 80) (VRE 2: VRE ATCC 29212; ATCC 29212, 24 h): 1 µg/mL (≈ 0.832 µM)
MIC (with polysorbate 80) (VRE 2: VRE ATCC 29212; VRE 2, MHB containing polysorbate 80 (0.002%, v/v), 37 °C, 24 h): ≤ 0.0625 µg/mL
MIC (M. smegmatis ATCC 607; ATCC 607, 72 h): 0.5 μg mL^–1
SMILES: CC[C@H](C)[C@@H]1NC(=O)[C@H](C)NC(=O)[C@H](NC(=O)[C@H](CO)NC(=O)[C@@H](NC(=O)[C@H](NC(=O)[C@@H](CCC(N)=O)NC(=O)[C@H](CO)NC(=O)[C@@H](NC(=O)[C@@H](Cc2ccccc2)NC)[C@@H](C)CC)[C@@H](C)CC)[C@@H](C)CC)[C@H](C)OC(=O)[C@H]([C@@H](C)CC)NC1=O [Compound 12, Ile10-teixobactin] (H-[dNMeF]IS[dQ][d(aIle)]IS[dT]AII; ester 8-C)
MBC (MRSA 1: MRSA ATCC 700699; MRSA 1 (MRSA ATCC 700699), plated on MHA, 37 °C, 24 h): 1 μg mL^–1
MBC ([1]; MRSA 3 (MRSA DM21455), plated on MHA, 37 °C, 24 h): 0.125 μg mL^–1
MBC ([2]; Staphylococcus aureus ATCC 29213, plated on MHA, 37 °C, 24 h): 0.125 μg mL^–1
time to complete bactericidal activity (MRSA DM21455; 0.5 μg mL^–1, MHB containing 0.002% v/v polysorbate 80, 37 °C, average of two independent experiments): ≤ 8 h
